Experiments:
Type in all cases: in vivo
[1] = system: female Albino Wistar rats; assay: glucose tolerance test; conditions: 25, 50, 75 mg/kg body wt daily for four months; 6 h fast, 2 g/kg intraperitoneally, tail vein blood 0-120 min; p<0.01 ResArgin, p<0.05 resveratrol
Procedure: (§1) To determine the efficacy of resveratrol-arginine conjugate, six month old female Albino Wistar rats were divided into seven groups (six rats per group) and given the following daily treatment for four months: • Group 1: Control; • Group 2: 25 mg ResArgin/kg body wt; • Group 3: 50 mg ResArgin/kg body wt; • Group 4: 75 mg ResArgin/kg body wt; • Group 5: 25 mg Resveratrol/kg body wt; • Group 6: 50 mg Resveratrol/kg body wt;
Group 7: 75 mg Resveratrol/kg body wt. In one embodiment, glucose tolerance levels were tested via a glucose tolerance test and analysis was performed. Compared to the Control group, glucose tolerance was improved in the ResArgin and resveratrol groups (p<0.01 and p<0.05 respectively) over the experimental period.
In one embodiment, glucose tolerance tests were performed after having the rats fast for 6 hours and injecting 2 g/kg body weight intraperitoneally. Blood was then collected from the tail vein at 0, 15, 30, 60 and 120 minutes after injection.

[2] = system: female Albino Wistar rats; assay: hair regrowth assay; conditions: 25, 50, 75 mg/kg body wt daily for four months; dorsal hair plucked 1.5 cm x 1.5 cm, scored two weeks later from digital photographs
Procedure: as §1
In another embodiment, hair regrowth assay was done and quantified. Compared to the Control group, hair regrowth was improved in the ResArgin and resveratrol groups over the experimental period.
In the hair regrowth assay, dorsal hair was removed by plucking from a square of approximately 1.5 cm×1.5 cm. Hair growth and re-growth was scored two weeks later on the basis of digital photographs.

[3] = system: female Albino Wistar rats; assay: four month daily treatment study, investigated age related conditions overall; conditions: summary of the study; effects of ResArgin being more significant than those of resveratrol
Procedure: as §1
Based on the results of the study performed, the effective dosage of resveratrol arginine conjugate is 10 to 250 mg per kilogram of body weight for a period of at least two weeks.

Oc1ccc(C=Cc2cc(O)cc(O)c2)cc1 [resveratrol]
glucose tolerance compared to the Control group [1]: improved | hair regrowth compared to the Control group [2]: improved | effect on the investigated age related conditions [3]: significantly improved

— US20170119693A1, “Methods of Improving Glucose Tolerance, Hair Regrowth, and Bio-Availability” (priority 2015, published 2017)
